The record followed here is a melting point compilation (Tetko et al.; mined from patent text by program, amines drawn as free bases though some values may be those of a salt).

Take `O=C(Cc1ccccc1C(=O)O)Nc1cccc(/C=C/c2nc(C3CCCCCCC3)cs2)c1`: the melting point – broadly, the temperature, or range, at which the solid turns liquid – was 180 to 182 °C.

The compound `C1=C(c2c[nH]c3ccccc23)CCN(CC2COc3ccc4occc4c3O2)C1` (centres undefined) gave a melting point of 208 to 209 °C.

In turn, `Fc1ccc2nc(Cl)c(Cl)nc2c1` registered a melting point of 148 to 152 °C.

As to `CCCn1nc(-c2ccc(O)c(F)c2)c2cccc(Cl)c21`, the melting point was in the range of 134 to 135 °C.

`CN(C)C=CC(=O)c1cc(Cl)ccc1Cl` gave a melting point of 83 to 85 °C.

`O=C(O)c1nc2n(c(=O)c1OCc1ccccc1)CCOC2` had a melting point of 171 °C.

Consider `CCNC(=O)Nc1ccc(-c2sc3c(c2CN(C)CCOC)c(=O)n(-c2ccc(N)cc2)c(=O)n3Cc2c(F)cccc2F)cc1`, for which the melting point is 205 to 207 °C.

`O=Cn1cc(Cl)c(-c2cccc(Cl)c2Cl)c1`: the melting point was 130 to 131 °C.

As to `CN(CCCCCCCC(=O)O)c1cnc(-c2ccccc2)c(-c2ccccc2)n1`, the melting point lay in the range of 116 to 117 °C.

As for `CCC(O)c1cc([N+](=O)[O-])cc(Br)c1Cl` (centres undefined), the melting point fell in the range of 110 to 113 °C.

`O=C1c2ccc([N+](=O)[O-])cc2C(=O)N1C1CCN(CCc2ccccc2)CC1` registered a melting point of 240 to 242 °C.

In turn, `CCOC(=O)C(=O)c1ccc(-c2ccc(-c3ccccc3)cc2)o1` gave a melting point of 91 to 94 °C.

The compound `CNC(=O)CN(c1ccc(Cl)cc1Cc1c(F)cccc1F)S(=O)(=O)c1ccc(OC)c(OC)c1` displayed a melting point of 92.9 °C.

`COC(=O)C1=C[C@@H](OC(C)C)[C@H](NC(C)=O)[C@@H](CCO)C1` registered a melting point of 118 to 119 °C.

The compound `CS(=O)(=O)c1ccc(-c2cnn(Cc3ccc(F)cc3F)c(=O)c2-c2ccc(F)cc2)cc1` registered a melting point of 179 to 182 °C.

Take `CN(C)C(=S)Nc1ccc(NNC=O)cc1`: the melting point was 187 to 189 °C.

On to `COC(=O)[C@@]12CO[C@@H](C(C)(C)C)N1C(=O)[C@@H](Cc1ccccc1)C2`, for which the melting point was 130 to 131 °C.

`C[Si](C)(C)C1([Si](C)(C)C)c2ccccc2-c2ccccc21` gave a melting point of 110 to 112 °C.

In turn, `Cc1ccccc1C(=O)Nc1ccc(C(=O)N2Cc3ccnn3Cc3ccccc32)c(Cl)c1` returned a melting point of 241 to 244 °C.

As to `Cc1nc(N=Nc2ccccc2)c(O)c(=O)[nH]1`, the melting point is 243 to 245 °C.

`O=C1c2ccccc2C(O)N1CCCO[N+](=O)[O-]` (centres undefined) gave a melting point of 72 to 74 °C.

In turn, `BrCC=C1c2ccccc2C=Cc2ccccc21` showed a melting point of 87.5 to 89.5 °C.

Turning to `Cn1cc(C#N)c(Nc2ccc([N+](=O)[O-])cc2N)n1`, the melting point was determined as 204 °C.

For `CN(C)c1ccc(NC(=O)[C@@H](Cc2ccccc2)NC(=O)CCC(=O)O)cc1`, the melting point lay in the range of 197 to 198 °C.

`O=C1c2ccccc2C(O)N1CCCCCO[N+](=O)[O-]` (centres undefined) registered a melting point of 70 to 72 °C.

In turn, `COc1ccc(/C=C/C(=O)N2CCN(C(=O)c3cc(C(F)(F)F)cc(C(F)(F)F)c3)[C@H](Cc3ccc(C)c(C)c3)C2)cc1` returned a melting point of 67 to 76 °C.

On to `COCOc1c(NC(=S)NCc2cccnc2)cc(OC)cc1C(C)(C)C`, for which the melting point was 137 to 138 °C.

Turning to `CCn1ncc2c1ncc1c(N3CCN(C)CC3)nc3cc(C)nn3c12`, the melting point lay within 167 to 169 °C.

`O=c1[nH]c2ccccc2c2c(CO)c(CO)nn12` came in with a melting point of 247 to 250 °C.

`O=S(=O)(Nc1ccc(Cl)nn1)c1ccccc1-c1ccccc1` showed a melting point of 196 to 198 °C.

As to `CC(=O)SCCC(=O)N1[C@@H](c2ccccc2O)SC[C@H]1C(=O)N[C@@H](CC(C)C)C(=O)O`, the melting point lay in the range of 78 to 84 °C.

For the compound `O=C(Nc1ccc(C2CCC(O)C2)cc1)OCc1ccccc1` (centres undefined), the melting point fell in the range of 99 to 101 °C.

Regarding `CCCc1nc2c(N)nc3ccc(-c4ccc(F)cc4CN)cc3c2s1`, the melting point fell in the range of 198 to 201 °C.

As to `Cc1[nH]c(C=O)c(C)c1CCCO`, the melting point was 85 °C.

Compound `N#CC(=NO)c1cccc(Br)c1` returned a melting point of 91 to 93 °C.

`O=C1c2ccncc2C(=O)c2c(Cl)ccc(F)c21`: the melting point was in the range of 204 to 206 °C.

Consider `CN(C)C=Nc1c(Cl)cc(N=Cc2ccc(C#N)cc2)cc1Cl`, for which the melting point was 169 to 170 °C.

For `CC1(C)OOC23CCCCC2CC(=O)OC3O1` (centres undefined), the melting point was 106 to 107 °C.

As for `Cc1ccc(-c2ncc(NC(=O)OCc3ccccc3)c(=O)n2CC(=O)NC(Cc2ccccc2)C(=O)C(F)(F)F)cc1` (centres undefined), the melting point lay in the range of 173 to 175 °C.

`C#CCN1C(=O)COc2cc(-c3ncc(C(F)(F)F)c(C)c3Cl)c(F)cc21` displayed a melting point of 156 to 157 °C.

With `CCCCCCCc1cc(O)cc2c1C(=O)OC(C)(C)O2`, the melting point was 100 to 102 °C.

Take `COC(=O)c1cnc2c3cc(NS(C)(=O)=O)ccc3ncn2c1=O`: the melting point is 293 to 296 °C.

Regarding `O=C(O)/C=C/c1cc(F)c2ncc(C(=O)NCc3ccc(Cl)cc3)c(O)c2c1`, the melting point lay in the range of 296 to 298 °C.

The compound `CN1Cc2c(c3cc(CCN4CCN(c5nsc6ccccc56)CC4)ccc3[nH]c2=O)C1` registered a melting point of 205 to 207 °C.

Regarding `Nc1nc2ccccc2c2sc(C=Cc3ccccc3)nc12`, the melting point was 239 to 241 °C.

The compound `CCCn1c(=O)c2[nH]c(CC34CC5CC(CC(C5)C3)C4)nc2n(CCC)c1=O` had a melting point of 178 to 180 °C.

For the compound `N#Cc1cc([N+](=O)[O-])ccc1C=C1C=CN(Cc2ccccc2[N+](=O)[O-])C=C1`, the melting point fell in the range of 193 to 201 °C.

Consider `CC(C)(C)c1cc(-c2nc3n(c2C#N)CCS3)cc(C(C)(C)C)c1O`, for which the melting point was in the range of 207 to 208 °C.

`COC(=O)c1cn2c(C)csc2n1` came in with a melting point of 170 to 173 °C.

For `CN(C(=O)OC(C)(C)C)C1CC=C(c2c[nH]c3ccc([N+](=O)[O-])cc23)CC1` (centres undefined), the melting point lay within 224 to 226 °C.

`COC1CCN(c2cccc(-c3cnc4[nH]cc(C(=O)C(C)(C)C)c4n3)c2)C1` (centres undefined) returned a melting point of 194 to 195 °C.

`CC(=O)OCc1c(Br)cccc1N1CCc2c(sc3c2CC(C)(C)C3)C1=O` yielded a melting point of 126 to 128 °C.

With `O=C(Cn1c(-c2ccc(Cl)cc2)nc2cccnc21)N1CCCCC1`, the melting point is 176 to 178 °C.

Turning to `CCCC(=O)c1cnc2c(F)cccc2c1Cl`, the melting point was 57 to 60 °C.

Compound `CCc1nc(C)cn1CO` returned a melting point of 83.1 to 86.3 °C.

Regarding `CCCn1c(=O)n(-c2ccc3c(c2)OCO3)c2ncc(NC(=O)OCC)cc21`, the melting point was in the range of 146 to 147 °C.

`N=C(N)c1ccc(NC(=O)NC(=O)c2ccc(OCC(=O)O)cc2)cc1` returned a melting point of 285 to 288 °C.

In turn, `O=C(C#Cc1ccc(Cl)cc1)Nc1ccc2c(ccn2CCN2CCCC2)c1` displayed a melting point of 127 to 129 °C.

Take `CCN(CC)C(=O)c1cc(-c2ccccc2)c(=O)[nH]c1-c1c(Cl)cccc1C#N`: the melting point fell in the range of 237 to 240 °C.

Regarding `CCc1nn(C2CCCC2)c2cc(C(=O)Nc3cccnc3)ccc12`, the melting point lay within 133 to 135 °C.

`CN1CCC(Oc2ccccc2N)(c2ccccc2)CC1` registered a melting point of 129 to 130 °C.

Compound `CCCc1c(C(=O)C(C)C)c2ccc(C(N)=O)cc2n1Cc1c(Cl)cccc1Cl` yielded a melting point of 208 to 209 °C.

In turn, `Cc1[nH]c(=S)n(Nc2cccc(Cl)c2)c1-c1cccc(Br)c1` had a melting point of 196 °C.

In turn, `COc1cc(F)ccc1C(=O)NCCN1CCC(n2c(=O)[nH]c3cc(Cl)ccc32)CC1` came in with a melting point of 227 °C.

`Cc1onc(-c2ccccc2)c1C(=O)N[C@@H]1N=C(c2ccccc2)c2ccccc2N(C)C1=O` had a melting point of 123 to 126 °C.

Regarding `COc1ccc2c(c1)c1c(n2CCBr)C(=O)CCC1`, the melting point was found to be 119 °C.

`CCCN(CCC)CCCC1CCN(CCNC(=O)N2c3ccccc3NC(=O)c3csc(C)c32)CC1`: the melting point fell in the range of 114 to 115 °C.

Compound `CCNC1CCN(c2c(F)cc3c(=O)c(C(=O)O)cn(CC)c3c2F)C1` (centres undefined) gave a melting point of 227 to 229 °C.

As to `OC1CCCc2sccc21` (centres undefined), the melting point lay within 58 to 60 °C.

Compound `COC(=O)CCC1CCC(=O)N1` (centres undefined) gave a melting point of 52 to 53 °C.

`CC(=O)Nc1nc2c(Oc3cc(-c4ccc(C(F)(F)F)cc4NC(C)=O)ncn3)cccc2s1` came in with a melting point of 259 to 261 °C.

In turn, `CCCCNC(=S)Nc1ccc(NNC=O)c(OC)c1` had a melting point of 130 to 132 °C.

On to `CCSc1ccc([N+](=O)[O-])c(N)c1`, for which the melting point was in the range of 75 to 76 °C.

Compound `CCOC(=O)c1cc2c(C)ccc3c2n1CCC3=O` gave a melting point of 103 to 104 °C.

In the case of `Cc1c(SCCCn2c([N+](=O)[O-])cnc2C)ccnc1CSc1ccncc1`, the melting point lay in the range of 140 to 142 °C.

For `O=C(CBr)Cc1c(F)cccc1Cl`, the melting point is 47 °C.

`COc1cc(C(=O)O)ccc1Cc1cn(C)c2ccc(C(=O)NCC3CCCC3)cc12`: the melting point lay in the range of 237 to 239 °C.

For the compound `Cc1oc(-c2ccccc2)nc1COc1ccc(CCCBr)cc1`, the melting point fell in the range of 80 to 81 °C.

The compound `COc1cc2c(cc1OC)[C@@H]1CCCC[C@@H]1N=C2c1ccc(N)cc1` (racemic) registered a melting point of 160 to 161 °C.

On to `COc1cc(C(=O)O)ccc1OCc1cccc(OCc2ccc3ccccc3n2)c1`, for which the melting point was in the range of 188 to 190 °C.

The compound `CC1(C)CCC(C)(C)c2cc(S(=O)Cc3ccc(C(=O)O)cc3)ccc21` (centres undefined) showed a melting point of 198 to 200 °C.

`CN1CNC(=O)NC1=O`: the melting point is 252 to 254 °C.

For the compound `COc1ccc2c(N(C)CCN3CCOCC3)noc2c1`, the melting point was in the range of 43 to 44 °C.

`Cc1[nH]cnc1/C=C1\CCc2sc3ccccc3c2C1=O` gave a melting point of 220 to 223 °C.

In turn, `CC(C)C(NC(=O)c1ccc(C(=O)NCC(=O)OCc2ccccc2)cc1)C(=O)N1CCCC1C(=O)NC(C(=O)C(F)(F)F)C(C)C` (mixture of isomers) registered a melting point of 77 to 78 °C.

With `CC(C)(CO)NC(=O)c1cccc(-c2cccc3cc(Cc4cc(F)cc(Cl)c4)sc23)c1`, the melting point fell in the range of 149 to 150 °C.

For `C[C@H](NC(=O)c1c[nH]c2ncc(-c3ccc(C(F)(F)F)cc3)nc12)C(C)(C)C`, the melting point is above 300 °C.

On to `Nc1nc(N2CCOCC2)c2ncn(C3CC(F)C(CO)O3)c2n1` (centres undefined), for which the melting point was 165 to 167 °C.

`COC(=O)c1ccc(CCn2ccn(C3CCc4ccccc4C3)c2=S)cc1` (centres undefined) came in with a melting point of 159 to 161 °C.
